PubChem BioAssay AID1549 (Sanford-Burnham Center for Chemical Genomics, 2009)
Activity calls are given as the source filed them. The rule behind the calls is not given here.

Target: Influenza A virus M2 proton channel (A/TW/4845/1999 H1N1)
Test: NMR binding screen, influenza A virus M2 proton channel, Kd (AID 1549)
Conditions: M2 protein

Row | SMILES | Kd
1 | CCSc1nc(N)c(NC(=O)c2ccco2)c(=O)[nH]1 | > 4 mM (inactive)
2 | O=C(O)CNCC(O)Cn1c2ccccc2c2ccccc21 (centres undefined) | > 4 mM (inactive)
3 | CC(=O)Nc1cccs1 | > 4 mM (inactive)
4 | CC(C)(C)Cc1nc(-c2ccccn2)no1 | > 4 mM (inactive)
5 | COC(=O)c1noc(-c2ccc(OC)cc2)n1 | > 4 mM (inactive)
6 | Cc1ccc(NC(=O)C(=O)Nc2ccccn2)cc1 | > 4 mM (inactive)
7 | COc1ccccc1/C=C\C(=O)O | > 4 mM (inactive)
8 | Nc1ccc(O)cn1 | > 4 mM (inactive)
9 | C=C(C)C1(O)OC(=O)C=C1OC (centres undefined) | > 4 mM (inactive)
10 | CCNS(=O)(=O)c1ccc(OC)c(C)c1 | > 4 mM (inactive)
11 | Nc1cncc(C(=O)O)c1 | > 4 mM (inactive)
12 | O=C(O)CNC(=O)c1ccc([N+](=O)[O-])cc1 | > 4 mM (inactive)
13 | Nc1ccc2c(c1)CCC2=O | > 4 mM (inactive)
14 | NCc1nnnn1-c1ccccc1 | > 4 mM (inactive)
15 | COC(=O)Nc1c(C)n(C)n(-c2ccccc2)c1=O | > 4 mM (inactive)
16 | C[C@H]1C[C@@H](O)[C@]2(O)[C@@]13CC(=O)OC[C@@]2(C)[C@](C)(O)C(=O)C3 | > 4 mM (inactive)
17 | N#CCSc1nc2ccccc2c(=O)n1-c1ccccc1 | > 4 mM (inactive)
18 | O=C(CSc1ccnc(=O)[nH]1)NCc1ccco1 | > 4 mM (inactive)
19 | CNc1nnc(Cc2csc(N)n2)s1 | > 4 mM (inactive)
20 | C/C=C/c1ccc2c(c1)OCO2 | > 4 mM (inactive)
21 | NC1=NC(=O)/C(=C\c2cccnc2)S1 | > 4 mM (inactive)
22 | NC(=O)c1cccc2c(=O)oc3ccccc3c12 | > 4 mM (inactive)
23 | CC(=O)O[C@@H]1C=C[C@@]2(C)C(C[C@@H](OC(C)=O)[C@@]3(C)C4=CC(=O)O[C@@H](c5ccoc5)[C@]4(C)CCC23)C1(C)C (some centres undefined) | > 4 mM (inactive)
24 | CSc1ccccc1NC(=O)c1c(C)noc1C | > 4 mM (inactive)

Row | SMILES | Kd
25 | O=C(O)c1cccc(N2C(=O)C3CC=CCC3C2=O)c1 (centres undefined) | > 4 mM (inactive)
26 | C[C@@H]1O[C@@H](O[C@H]2CC[C@]3(C=O)C4CC[C@]5(C)[C@@H](C6=CC(=O)OC6)CC[C@]5(O)C4CC[C@]3(O)C2)[C@H](O)[C@H](O)[C@H]1O (some centres undefined) | > 4 mM (inactive)
27 | COCC(=O)NC1CC(C)(C)NC(C)(C)C1 | > 4 mM (inactive)
28 | COc1cc2c(cc1OC)[C@@H]1C(=O)c3ccc(O)c(CC=C(C)C)c3O[C@@H]1CO2 | > 4 mM (inactive)
29 | Oc1ccccc1N1CCOCC1 | > 4 mM (inactive)
30 | COc1ccc(-c2ccc(=O)n(CC(N)=O)n2)cc1 | > 4 mM (inactive)
31 | CCc1c(C(=O)N2CCOCC2)csc1C | > 4 mM (inactive)
32 | Cc1ccc(-c2c(C)n([O-])c(C)c(C)[n+]2=O)cc1 | > 4 mM (inactive)
33 | CCCCCC1C(=O)CCC1CC(=O)OC (centres undefined) | > 4 mM (inactive)
34 | O=C(Nn1cnnc1)c1cccc(C(F)(F)F)c1 | > 4 mM (inactive)
35 | OCc1ccc2nsnc2c1 | > 4 mM (inactive)
36 | CN(C)c1ccc(/C=C2/NC(=S)NC2=O)cc1 | > 4 mM (inactive)
37 | CC(=O)c1c(O)cc(C)n(Cc2ccccc2)c1=O | > 4 mM (inactive)
38 | O=C1CC(=O)N(c2cccc(Cl)c2)N1 | > 4 mM (inactive)
39 | NC(=O)Cn1nc2c3c(cccc3c1=O)-c1ccccc1-2 | > 4 mM (inactive)
40 | Cn1[nH]c(C(F)(F)F)cc1=O | > 4 mM (inactive)
41 | CC(=O)O[C@H]1C[C@@H](OC(C)=O)C(C)(C)C2C[C@@H](OC(C)=O)[C@]3(C)C([C@H](OC(C)=O)C[C@@]4(C)[C@H](c5ccoc5)OC(=O)[C@H]5O[C@]543)[C@]21C (some centres undefined) | > 4 mM (inactive)
42 | COC(=O)c1ccc(NC(=O)CC2NCCNC2=O)cc1 (centres undefined) | > 4 mM (inactive)
43 | Cc1nnsc1C(=O)Nc1ccccn1 | > 4 mM (inactive)
44 | CN(C)C(=O)Oc1ccc(-c2nnco2)cc1 | > 4 mM (inactive)
45 | CC1(C)Cn2c(nnc2-c2ccccc2)S1 | > 4 mM (inactive)
46 | CN1CCN(C(=S)c2ccc(N(C)C)cc2)CC1 | > 4 mM (inactive)
47 | COc1ccccc1NS(=O)(=O)c1c[nH]c(=O)[nH]c1=O | > 4 mM (inactive)
48 | COc1ccc(Cc2nnc3c4cnn(C)c4ncn23)cc1 | > 4 mM (inactive)

Row | SMILES | Kd
49 | CP(C)(=O)CCC(=O)O | > 4 mM (inactive)
50 | Cc1noc(C)c1C(=O)NCc1cccs1 | > 4 mM (inactive)
51 | C=CCn1c(-c2ccc(O)cc2)n[nH]c1=S | > 4 mM (inactive)
52 | Nc1ncnc(Nc2ccccc2C(F)(F)F)n1 | > 4 mM (inactive)
53 | OC[C@H]1O[C@@](CO)(O[C@@H]2O[C@H](CO)[C@@H](O)[C@H](O)[C@H]2O)[C@@H](O[C@@H]2O[C@H](CO)[C@@H](O)[C@H](O)[C@H]2O)[C@@H]1O | > 4 mM (inactive)
54 | CC1(C)NC(=O)N(CN2CCOCC2)C1=O | > 4 mM (inactive)
55 | OC12CC3CC(C1)C1(NCCS1)C(C3)C2 (centres undefined) | > 4 mM (inactive)
56 | CN1CCn2c1nc(N1CCOCC1)nc2=O | > 4 mM (inactive)
57 | CC(=O)CC1(O)C(=O)Nc2ccccc21 (centres undefined) | > 4 mM (inactive)
58 | Cc1ncc(C(=O)O)c(-c2ccccc2)n1 | > 4 mM (inactive)
59 | O=C1C2C3C=CC(C3)C2C(=O)N1c1nccs1 (centres undefined) | > 4 mM (inactive)
60 | Nc1ccc(NC(=O)c2ccco2)c(Cl)c1 | > 4 mM (inactive)
61 | Cc1c(N=CN(C)C)c(=O)n(-c2ccccc2)n1C | > 4 mM (inactive)
62 | COc1cc(/C=C2/NC(=S)NC2=O)cc(Cl)c1O | > 4 mM (inactive)
63 | CS(C)=C1C(=O)NC(=O)N(Cc2ccc(F)cc2)C1=O | > 4 mM (inactive)
64 | COC(=O)CC1NC2CCCCC2NC1=O (centres undefined) | > 4 mM (inactive)
65 | Cc1cc(OC(=O)c2ccco2)c([N+](=O)[O-])c(=O)[nH]1 | > 4 mM (inactive)
66 | NCc1ccc(-c2cccs2)cc1 | > 4 mM (inactive)
67 | COC(=O)c1ccc(N2CCCC2)nc1 | > 4 mM (inactive)
68 | NC(=O)CSc1nc2ccccc2o1 | > 4 mM (inactive)
69 | COc1cc2c(cc1OC)C(C)NCC2 (centres undefined) | > 4 mM (inactive)
70 | CC(C)(C)NC(=O)CN1C(=O)c2ccccc2S1(=O)=O | > 4 mM (inactive)
71 | O=C(Nc1nncs1)c1c(F)c(F)c(F)c(F)c1F | > 4 mM (inactive)
72 | Nc1nnc(C(F)(F)F)s1 | > 4 mM (inactive)

Row | SMILES | Kd
73 | O=C(Nc1ccc2c(c1)OCO2)c1c(F)cccc1F | > 4 mM (inactive)
74 | O=C(CNC(=O)c1cccs1)NC1=NCCS1 | > 4 mM (inactive)
75 | NC(CSCSCC(N)C(=O)O)C(=O)O (centres undefined) | > 4 mM (inactive)
76 | CCCc1ncc(C(O)c2cccc3ccccc23)n1C (centres undefined) | > 4 mM (inactive)
77 | N#Cc1nc(-c2ccccc2Cl)oc1N1CCOCC1 | > 4 mM (inactive)
78 | O=C(O)Cn1cnc2ccccc2c1=O | > 4 mM (inactive)
79 | COc1ccc(/C=N/n2cn[nH]c2=S)cc1 | > 4 mM (inactive)
80 | O=C(O)Cc1noc2ccccc12 | > 4 mM (inactive)
81 | O=C(CSc1ccc(Cl)cc1)N1CCOCC1 | > 4 mM (inactive)
82 | Cc1ccc(-c2nn(C)c(=O)c3ccccc23)cc1CO | > 4 mM (inactive)
83 | CCSc1nc(=S)n(CC)c(C)c1C(C)=O | > 4 mM (inactive)
84 | O=C(O)c1cccnc1-c1nc2ccccc2s1 | > 4 mM (inactive)
85 | CN(C)c1oc(-c2ccccc2Cl)nc1C#N | > 4 mM (inactive)
86 | CCCNC(=O)CSc1nnc(C)s1 | > 4 mM (inactive)
87 | Clc1ccc(-c2noc(CN3CCCC3)n2)cc1 | > 4 mM (inactive)
88 | COc1ccc(Cl)cc1-c1n[nH]c(=S)n1C | > 4 mM (inactive)
89 | O=C(NC1CCS(=O)(=O)C1)c1cccs1 (centres undefined) | > 4 mM (inactive)
90 | CC(=O)c1cnc(Nc2nc(C)c3ccccc3n2)nc1C | > 4 mM (inactive)
91 | CNC(=S)N1CCN(C(=O)c2ccco2)CC1 | > 4 mM (inactive)
92 | O=c1[nH]c(=O)n(-c2ccc(F)cc2)c(O)c1/C=C1/C=CC=N1 | > 4 mM (inactive)
93 | C(=C\c1ccccc1)/C=N/n1cnnc1 | > 4 mM (inactive)
94 | COc1cc2c(cc1OC)[C@@H]1C(=O)c3ccc4c(c3O[C@@H]1CO2)CC(C(C)C)O4 (some centres undefined) | > 4 mM (inactive)
95 | CNc1nc(OC)nc(N2CCOCC2)n1 | > 4 mM (inactive)
96 | CN1C2CC(OC(=O)[C@H](CO)c3ccccc3)C[C@H]1[C@H]1OC21 (some centres undefined) | > 4 mM (inactive)

Row | SMILES | Kd
97 | CCOC(=O)c1c(SC)nc(=O)[nH]c1C | > 4 mM (inactive)
98 | NC1=NC(=O)/C(=C/c2ccc(O)c(Cl)c2)S1 | > 4 mM (inactive)
99 | CC(C)=CC1C(CO)C1(C)C (centres undefined) | > 4 mM (inactive)
100 | Cc1nnc(N2CCN(Cc3ccccc3)CC2)[nH]c1=O | > 4 mM (inactive)
101 | OC1CCCN(Cc2ccccc2)C1 (centres undefined) | > 4 mM (inactive)
102 | O=c1c(-c2cccs2)[n+]([O-])c2ccccc2n1O | > 4 mM (inactive)
103 | COc1ccc(-c2coc3c(O)c(OC)ccc3c2=O)cc1 | > 4 mM (inactive)
104 | NC(=O)c1ccc(C(N)=O)cc1 | > 4 mM (inactive)
105 | Cc1ccc(CN2CCNC(=O)C2CC(=O)O)o1 (centres undefined) | > 4 mM (inactive)
106 | COc1cccc(/C=C/C(=O)O)c1C(C)C | > 4 mM (inactive)
107 | CC(=O)Oc1ccc(O)cc1 | > 4 mM (inactive)
108 | CCOc1nc(C)ccc1-c1noc(-c2ccco2)n1 | > 4 mM (inactive)
109 | COC(=O)C1[C@H]2C[C@H]3c4[nH]c5ccccc5c4CCN3C[C@@H]2CC[C@@H]1O (some centres undefined) | > 4 mM (inactive)
110 | COc1cccc2c1CCC1=CC(=O)CC[C@@]12C | > 4 mM (inactive)
111 | CC(=O)Nn1cc2c(=O)n(C)c(=O)n(C)c2c1 | > 4 mM (inactive)
112 | Cc1cccc(NC(=O)c2ccc(=O)[nH]n2)c1 | > 4 mM (inactive)
113 | COc1ccc2nc(SCC(N)=O)[nH]c2c1 | > 4 mM (inactive)
114 | Cc1cc(C(=O)Nc2cccnc2)no1 | > 4 mM (inactive)
115 | OCc1ccc(-n2ccnc2)cc1 | > 4 mM (inactive)
116 | COC1C(O)C(O)C(O)[C@@H](O)C1O (some centres undefined) | > 4 mM (inactive)
117 | NC12CC3CC(C1)CC(O)(C3)C2 | > 4 mM (inactive)
118 | Cc1cc(NC(=O)CCCn2cnc([N+](=O)[O-])n2)no1 | > 4 mM (inactive)
119 | O=C(/C=C/C=C/c1ccc2c(c1)OCO2)N1CCCCC1 | > 4 mM (inactive)
